Assay results from patent US10494397B2, “Rebaudioside analogs” (PepsiCo, Inc., priority 2016, dated 2019).

Tests used:
Format in all cases: in vivo, human
Tasters = experiment: Sensory evaluation of test material as a sweetener (taster panel, scale of 1 to 10); parameters: key: not observed or only minimally observed (−); highly observed (+++)
Text: Sample preparation protocol for testing material as a sweetener: Tasters wore noseclips and were blinded to the identity of the test material. Tasters sampled 400 ppm Rebaudioside A and 6.5 Brix sucrose prior to the test material. Reb A 400 ppm was assigned a 5 on the scale of 1 to 10 as shown in FIG. 8 and sucrose (6.5%) was assigned a 10 on the same scale. Tasters were asked to rinse their mouths 5 times with water between tasting each sample. Tasters were then given the test article and asked to rank the test article for sweetness on the noted scale. Tasters were also asked to provide comments about bitterness, linger, flavors, and any other perceptions.
Numerical scores from all tasters were averaged and, taken together with comments regarding sweet quality, bitterness and off-tastes, converted into the symbols “−,” “+,” “++,” and “+++” to indicate whether a given characteristic was not observed or only minimally observed (−) or highly observed (+++). For example, a sample having a “−” in both sweet intensity and bitterness should be understood as a sample having minimal or no sweetness and minimal or no bitter flavor. By contrast, a sample having a “+++” in both sweet intensity and bitterness should be understood as a sample having highly observed sweet intensity and bitterness.
Preparation of Reb A in this experiment: Prepare 400 ppm Reb A in water (pH=7): 40 mg of Rebaudioside A was dissolved with stirring in 100 ml of water at room temperature.
Preparation of Sucrose in this experiment: Prepare 6.5% Sucrose in water (pH=7): weight 6.5 gr of Sucrose and dissolve it in 93.5 gr water (total 100 gr)
• Sweet quality was based upon a temporal profile (sweet onset, linger) and attributes such as syrupy, round, clean.

[1] = system: Trained Sensory panelists; experiment: Sucrose Equivalence Value, paired comparison with 1.5% sucrose; settings: 25 ppm in aqueous phosphoric acid (pH 3.1), room temperature; p<0.0001
Text: (§1) Trained Sensory panelists (n=25, 3 evaluations each) evaluated Reb B Galactoside in aqueous phosphoric acid (pH 3.1) at room temperature. Rebaudioside B galactoside is not currently approved for use in food or beverages in the United States. Therefore, every person who tasted the samples signed an informed consent form provided by PepsiCo Scientific Affairs before tasting samples. Participation in the tests was completely voluntary. Panelists who chose to participate could choose to stop participation at any time. In order for a test ingredient to be considered an enhancer, it must not be considered a sweetener.

[2] = system: Trained Sensory panelists; experiment: Sweet enhancement ranking test (4 samples ranked from least sweet to most sweet)
Text: as §1, with “Panelists were asked” for “In order for a test ingredient”, “rank 4 samples from least sweet to most sweet, with 1=least sweet and 4=most sweet As shown in FIGS. 1-3, Enhancement of Reb A, high-fructose corn syrup and sucrose were observed.” for “be considered an enhancer, it must not be considered a sweetener.”

In the case of `C=C1C[C@@]23CC[C@H]4[C@@](C)(CCC[C@@]4(C)C(=O)O[C@@H]4O[C@H](CO)[C@H](O)[C@H](O)[C@H]4O)[C@@H]2CC[C@]1(O[C@@H]1O[C@H](CO)[C@@H](O)[C@H](O[C@@H]2O[C@H](CO)[C@@H](O)[C@H](O)[C@H]2O)[C@H]1O[C@@H]1O[C@H](CO)[C@@H](O)[C@H](O)[C@H]1O)C3` [Compound 7D, Rebaudioside B Galactoside], the “Sweet Intensity” value (Tasters; averaged taster scores, scale 1 to 10 with Reb A 400 ppm = 5 and sucrose 6.5% = 10, noseclips, blinded) is reported as “+++”, the Bitterness (Tasters; taster comments and scores converted into symbols) is reported as “−” and the “Sucrose Equivalence Value (sweetness compared with 1.5% sucrose)” value [1] is reported as less than 1.5 % sucrose. The “Enhancement of sweetness of High-Fructose Corn Syrup (HFCS)” value ([2]; 25 ppm added to HFCS, FIG. 2) was “enhances the sweetness”, the “Enhancement of sweetness of Rebaudioside A” value ([2]; 25 ppm added to Rebaudioside A, FIG. 1) was “enhances the sweetness” and the “Enhancement of sweetness of sucrose” value ([2]; 25 ppm added to sucrose, FIG. 3) was “enhances the sweetness”.
